One data set has as its target T1, hNOD2 (Homo sapiens, UniProt Q9HC29).
T1 construct: host or cells: HEK-Blue NOD2 cells (HEK293)
Briefly: HEK-Blue NOD2 cell line reporter assay (NF-κB-inducible SEAP). To be noted: for EC50: HEK-Blue NOD2 cells, 18 h. It counts as cell-based. The gist of the method:
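HEK293 cells cotransfected with hNOD2 and an NF-κB-inducible SEAP reporter, exposed to compounds dose-dependently for 18 h at 37 °C, 5% CO2. SEAP read by absorbance at 630 nm; EC50 values from dose-response, duplicate wells, at least two independent biological replicates.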

Data set [1] can be described thus: Kinetic solubility (method of Hoelke et al.). It counts as physicochemical. The text has this:
Park et al. have shown that the degree of saturation of fatty acids exerts a profound impact on permeability of fatty acylated peptides—a higher degree of unsaturation results in higher permeability.[43] PUFA can also induce significant biophysical perturbations upon incorporation into membrane phospholipids.[67],[68] […] Given that the hydrophobicity of fatty acyl residues in general reduces as the number of unsaturated sites increases,[69],[70] we decided to ascertain how such structural modifications translate to the kinetic solubility of the molecule as a whole. […] The acylation with PUFA thus provides an elegant, albeit counterintuitive, approach, by which permeability of the molecule as a whole as well as its capacity for liposomal encapsulation can be enhanced without completely abolishing its aqueous solubility.

A further data set deals with PBMCs. Briefly: Direct cytotoxic effect of compounds on PBMCs (Sytox blue). The format is cell-based. To be noted: Table S2; for Percent of dead PBMCs, + LPS: 10 μM + LPS 1 μg/mL; for Percent of dead PBMCs: alone: compounds 10 μM, LPS 1 μg/mL, IL-2 200 U/mL. Here is the method:
Additionally, PBMCs and cancer cells alone were treated with desmuramylpeptides to assess any direct cytotoxic effects on these cells.
The PBMC cytotoxicity assays utilizing K562 cells were conducted following previously established methods, with some adjustments.[82] […] Meanwhile, K562 cells were stained with CFSE (Invitrogen, Carlsbad, CA, USA), washed twice with complete medium, and then added (1 × 10^4 cells per well) to the pretreated PBMCs to achieve a final effector cell to target tumor cell ratio of 40:1. Following a 4-h coincubation period at 37 °C with 5% CO2, cells were stained with Sytox blue dead cell stain (Invitrogen) and analyzed using an Attune NxT flow cytometer (Thermo Fisher Scientific, Waltham, MA, USA) along with FlowJo software (Tree Star, Inc., Ashland, OR, USA). Cells positive for both CFSE and Sytox blue were designated as dead K562 cells. PBMCs alone and CFSE-labeled cancer cells alone were also exposed to the compounds at equivalent concentrations and stained with Sytox blue to assess any direct cytotoxic effects of the compounds on PBMCs and cancer cells separately. Each experiment was conducted in duplicate and repeated in three independent biological replicates. Statistical analysis was performed using one-way ANOVA followed by Dunnett’s multiple comparisons test.

For data set [2], the system named is CD4+ T cells cocultured with BMDCs. Briefly: BMDC antigen presentation to ovalbumin-specific CD4+ T cells (OT II). It counts as cell-based, C57BL/6 mouse. To be noted: BMDCs pretreated 10 μM + ovalbumin 50 μg/mL 18 h, coculture 72 h; OVA-treated cells 63.8%. The protocol: (§1) For this study, we narrowed down the selection of suitable desmuramylpeptides even further. In order to assess the adjuvant potential of selected desmuramylpeptides with regard to their effect on DC-mediated activation of CD4^+ and CD8^+ T cells, we conducted an ex vivo antigen-presentation assay utilizing C57BL/6 mouse bone marrow-derived DCs (BMDCs). Upon stimulation with desmuramylpeptides at 10 μM, in conjunction with ovalbumin soluble protein (50 μg/mL), BMDCs were cocultured with carboxyfluorescein succinimidyl ester (CFSE)-labeled naïve ovalbumin-specific CD4^+ or CD8^+ T cells, which were isolated from splenocytes of OT II and OT I transgenic mice, respectively. […] Additionally, we investigated how the priming of T cells elicited by the tested compounds impacted the cytokine profiles secreted in BMDC/T-cell cocultures.
(§2) CD4^+ and CD8^+ T cells were isolated from splenocytes of OT II and OT I transgenic mice using CD4^+ and CD8^+ T cell isolation kits (Miltenyi Biotec, Germany) following the manufacturer’s instructions. The purified T cells were labeled with CFSE (Invitrogen, Carlsbad, CA, USA) and subsequently washed. Next, 5 × 10^4 T cells were combined with 1 × 10^4 BMDCs/well (pretreated with desmuramylpeptides at 10 μM and 50 μg/mL ovalbumin [Invivogen, San Diego, CA, USA] for 18 h and then washed). Following a 72-h incubation period at 37 °C with 5% CO2, supernatants were harvested and stored at −80 °C for cytokine analysis. The cells were then stained with Fixable viability dye eFluor 780 (eBioscience, Thermo Fisher Scientific, MA, USA), anti-Thy1.2-PE-Cy7 antibodies (Biolegend, San Diego, CA, USA), anti-CD8-eFluor450 antibodies (eBioscience), anti-CD4-eFluor450 antibodies (eBioscience), and anti-CD25-APC antibodies (Biolegend) before analysis using a Beckman Coulter Cytoflex S flow cytometer (CA, USA) and FlowJo software (Tree Star, Inc., Ashland, OR, USA). Live Thy1.2+/CD4+ and Thy1.2+/CD8+ cells were assessed for CFSE dilution and CD25 expression. Each experiment was performed in duplicate and repeated in two independent biological replicates. Statistical significance was determined using paired t tests.

Data set [3] concerns CD8+ T cells cocultured with BMDCs. Put plainly: BMDC antigen cross-presentation to ovalbumin-specific CD8+ T cells (OT I). To be noted: BMDCs pretreated 10 μM + ovalbumin 50 μg/mL 18 h, coculture 72 h; OVA-treated cells 23.3%. The format is cell-based, C57BL/6 mouse. Here is the method:
as §1
as §2, with “Each experiment was performed in duplicate and repeated in two independent biological replicates.” left out

For a further data set, the system named is BMDC/T-cell cocultures. Put plainly: T cell cytokine release in BMDC/T-cell cocultures. The format is cell-based, C57BL/6 mouse. To be noted: 10 μM; for levels of IL-6 and TNF-α secreted by CD4+ T cells: 72 h coculture. The protocol: as §1
Following 72 h of coincubation with BMDCs (pretreated with desmuramylpeptides [10 μM] and washed), supernatants from CD4^+ and CD8^+ T cells were harvested as previously described. […] Standard curves were constructed using recombinant cytokines provided in the kit. Data analysis was conducted using FlowJo (Tree Star, Inc., Ashland, OR, USA) and Prism (GraphPad, San Diego, CA, USA) software. Each experiment was performed in duplicate and replicated in two independent biological runs.

Setting [4] is: NF-κB transcriptional activity (SEAP), read-out: EC50 (nM), NOD2 agonistic activity.

Converted amounts (≈) assume the structure as drawn. Where two headings read alike, the source gives them in different places.

T1 sequence (Q9HC29 whole entry): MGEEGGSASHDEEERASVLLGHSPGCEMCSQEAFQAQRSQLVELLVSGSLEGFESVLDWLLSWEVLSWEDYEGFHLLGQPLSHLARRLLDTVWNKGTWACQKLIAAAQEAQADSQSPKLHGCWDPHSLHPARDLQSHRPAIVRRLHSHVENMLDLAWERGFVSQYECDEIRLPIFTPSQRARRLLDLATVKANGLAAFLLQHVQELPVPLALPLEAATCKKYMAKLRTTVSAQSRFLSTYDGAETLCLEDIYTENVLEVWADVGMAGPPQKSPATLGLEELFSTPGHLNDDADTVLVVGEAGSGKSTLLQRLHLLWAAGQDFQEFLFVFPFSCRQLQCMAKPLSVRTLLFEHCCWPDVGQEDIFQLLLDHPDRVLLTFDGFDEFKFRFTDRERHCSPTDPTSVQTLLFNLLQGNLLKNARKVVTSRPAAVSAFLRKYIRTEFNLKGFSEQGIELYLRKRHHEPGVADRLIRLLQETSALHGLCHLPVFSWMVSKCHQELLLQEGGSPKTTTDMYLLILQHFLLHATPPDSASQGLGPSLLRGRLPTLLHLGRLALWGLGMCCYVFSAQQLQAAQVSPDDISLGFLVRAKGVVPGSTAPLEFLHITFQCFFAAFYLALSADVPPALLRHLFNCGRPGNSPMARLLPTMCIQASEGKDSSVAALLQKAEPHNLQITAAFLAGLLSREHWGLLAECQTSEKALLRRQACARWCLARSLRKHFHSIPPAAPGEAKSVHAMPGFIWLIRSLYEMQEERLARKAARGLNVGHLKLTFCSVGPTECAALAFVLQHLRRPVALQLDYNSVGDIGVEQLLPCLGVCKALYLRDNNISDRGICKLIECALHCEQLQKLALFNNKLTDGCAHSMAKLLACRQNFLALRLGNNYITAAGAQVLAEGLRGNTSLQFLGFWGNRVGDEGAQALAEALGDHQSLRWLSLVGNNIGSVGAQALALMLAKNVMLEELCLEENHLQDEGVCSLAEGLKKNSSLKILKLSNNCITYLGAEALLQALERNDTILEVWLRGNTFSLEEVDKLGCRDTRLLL

For `CC/C=C\C/C=C\C/C=C\C/C=C\C/C=C\CCCC(=O)Oc1ccc(/C=C/C(=O)NCC(=O)N[C@H](C(=O)N[C@H](CCC(=O)OCC)C(=O)OCC)C(C)C)cc1OC` [Compound 23, Diethyl ((E)-3-(4-(((5Z,8Z,11Z,14Z,17Z)-Icosa-5,8,11,14,17-pentaenoyl)oxy)-3-methoxyphenyl)acryloyl)glycyl-L-valyl-D-glutamate], the EC50 on hNOD2 (setting [4]) worked out at 105 ± 22.8 nM. In data set [1], the kinetic solubility worked out at 105 µM (≈ 86.1 µg/mL). Moreover, the “diminished solubility compared to parent compound 1” value in data set [1] (kinetic solubility) came out at 4 factor. For the same compound, in the data set on PBMCs, the “Percent of dead PBMCs, + LPS” value is on record as 11.4% ± 2.64% and the “Percent of dead PBMCs” value is reported as 1.28% ± 0.06%. For the same compound, in data set [2], the “fraction of activated and proliferating CD4+ T-cells (CD25+, CFSE low)” value was 79.7%. Besides, the “fraction of activated and proliferating CD8+ T-cells (CD25+, CFSE low)” value in data set [3] is reported as 34.1%. The “levels of IL-6 and TNF-α secreted by CD4+ T cells” value in the data set on BMDC/T-cell cocultures is listed as “slightly increased”. Besides, in the data set with BMDC/T-cell cocultures (CD4+ T cell coculture, 72 h), the “production of the Th9-associated cytokine IL-9” value was “augmented”; the “stimulating IL-2 and IL-9 production” value is “most notable”.

For the compound `CCOC(=O)CC[C@@H](NC(=O)[C@@H](NC(=O)CNC(=O)/C=C/c1ccc(OC(=O)CO[C@H]2CC[C@@]3(C)C(=CC[C@H]4[C@@H]5CC[C@H]([C@H](C)CCCC(C)C)[C@@]5(C)CC[C@@H]43)C2)c(OC)c1)C(C)C)C(=O)OCC` [Compound 26, Diethyl ((E)-3-(4-(2-(((8S,9S,10R,13R,14S,17R)-10,13-Dimethyl-17-((R)-6-methylheptan-2-yl)-2,3,4,7,8,9,10,11,12,13,14,15,16,17-tetradecahydro-1H-cyclopenta[a]phenanthren-3-yl)oxy)acetoxy)-3-methoxyphenyl)acryloyl)glycyl-L-valyl-D-glutamate], the EC50 on hNOD2 (setting [4]) came out at 12200 nM. In addition, the EC50 at hNOD2 (read-out: EC50, NOD2 agonistic activity (text)) came to 12200 nM. Besides, in the data set with PBMCs, the “Percent of dead PBMCs, + LPS” value is given as 9.93% ± 0.49% and the “Percent of dead PBMCs” value is recorded as 1.08% ± 0.10%. Moreover, the “fraction of activated and proliferating CD4+ T-cells (CD25+, CFSE low)” value in data set [2] stood at 62.7%.

Regarding `CCCC(=O)Oc1ccc(/C=C/C(=O)NCC(=O)N[C@H](C(=O)N[C@H](CCC(=O)OCC)C(=O)OCC)C(C)C)cc1OC` [Compound 3, Diethyl ((E)-3-(4-(Butyryloxy)-3-methoxyphenyl)acryloyl)glycyl-L-valyl-D-glutamate], at hNOD2 (EC50 ratio versus unsubstituted counterpart 1), the “enhancement in potency compared to 1” value is about 17 fold. Further, at hNOD2 (setting [4]), the EC50 is 4.6 ± 1.6 nM. Also, in data set [1], the kinetic solubility was 178 µM (≈ 108 µg/mL). For the same compound, in the data set with PBMCs, the “Percent of dead PBMCs, + LPS” value is listed as 3.34% ± 0.35% and the “Percent of dead PBMCs” value is reported as 1.14% ± 0.23%. In addition, in data set [2], the “fraction of activated and proliferating CD4+ T-cells (CD25+, CFSE low)” value came out at 77.9%. Also, the “fraction of activated and proliferating CD8+ T-cells (CD25+, CFSE low)” value in data set [3] amounted to 29.3%. In addition, the “levels of IL-6 and TNF-α secreted by CD4+ T cells” value in the data set on BMDC/T-cell cocultures is “slightly increased”. Also, the “stimulating IL-2 and IL-9 production” value with BMDC/T-cell cocultures (CD4+ T cell coculture, 72 h) is “most notable”.

The values are drawn from article PMC11472310, “Distinctive Immune Signatures Driven by Structural Alterations in Desmuramylpeptide NOD2 Agonists” (Journal of Medicinal Chemistry, 2024).
